The assay has as its system oocysts. Briefly: Evaluation of naturally derived surfactants for decreasing and preventing oocyst aggregation. An excerpt:
In one aspect, the present invention provides a method for evaluating the ability of a surfactant to prevent aggregation of oocysts, sporocysts, and/or sporozoites. The method comprises adding a surfactant to a composition that comprises oocysts, sporocysts, sporozoites, or any combination thereof, at a concentration sufficient to prevent aggregation of the oocysts, sporocysts, and/or sporozoites (i.e. a test concentration). The resulting composition is then agitated, for example, by shaking manually or via an automatic shaker. As previously described, agitating the composition exposes the oocysts, sporocysts, and/or sporozoites to air or other gases, and promotes aggregation. After agitation, the composition is evaluated to determine whether any aggregation has occurred. Preferably, evaluation occurs by visually observing the composition for the presence of aggregated oocysts, sporocysts, and/or sporozoites. […]
In another aspect, the present invention provides a method for evaluating the ability of a surfactant to reduce oocyst, sporocyst, and/or sporozoite aggregation. […] Upon addition of the surfactant, the resulting composition is agitated, as previously described, and then evaluated to determine whether the aggregation has been reduced or eliminated entirely by addition of the surfactant. […]

Turning to casein, the “decreasing and preventing aggregation of oocysts” value was “effective”.
With serum albumin the entry was “effective”.

The values above are taken from patent publication US20040247607A1, “Use of surfactants to stabilize oocysts” (priority 1999, published 2004).
